Source: patent US20260199500A1, “Camptothecin Derivative, Conjugate Thereof, Preparation Method Therefor and Medical Use Thereof” (priority 2023, published 2026)

Assays:
[1] = system: N87 gastric cancer cells; assay: Inhibitory activity of compounds on N87 gastric cancer cells (CellTiter-Glo, 144 h); assay type: cell-based; conditions: for IC50 on N87 cells, ratio to DXD: IC50 of PY-X (DXD) set to 1, values are ratios of measured IC50 to DXD, 144 h
Procedure: (§1) On the day of the experiment, the cells were digested with 0.25% trypsin (Gibco, 25200-072), filtered through a 40 μm sieve, diluted with the corresponding medium to a cell density of 1×10^4 cells/mL, and inoculated into a 96-well white cell culture plate (Beyotime, FCP968), with 100 μL of cells added per well. The culture plate was placed in a 37° C. incubator (Thermo 311) containing 5% C02 and incubated for 24 hours. On the second day, the samples to be tested were prepared as a stock solution at a final concentration of 1M in DMSO (Sigma, D1650), then diluted with the corresponding medium to a final concentration of 200 nM, and subjected to four-fold serial dilutions, resulting in a total of 9 concentrations. 100 μL of the diluted sample was added to each well of the 96-well plate. The plate was placed in a 37° C. incubator containing 5% CO2 and incubated for 144 hours. The cell culture plate was then removed, and 100 μL of the cell viability assay reagent (CellTiter-Glo® Luminescent Cell Viability Assay, Promega, G7571) was added to each well. The reaction was carried out in the dark at room temperature for 5 minutes. Luminescence values were read using a microplate reader (TECAN SPARK), and data were processed using Graphpad Prism 7 software.
(§2) PY—Y is referenced in the document (WO2022170971A1); and PY-A is referenced in the document (WO2021148501A1).

[2] = system: MDA-MB-468 breast cancer cells; assay: Inhibitory activity of compounds on MDA-MB-468 breast cancer cells (CellTiter-Glo); assay type: cell-based; conditions: for IC50 on 468 cells, ratio to DXD: IC50 of PY-X (DXD) set to 1, values are ratios of measured IC50 to DXD
Procedure: as §1, §2

[3] = Log D of small molecules (1-octanol / phosphate buffer pH 2.5 and pH 7.4, LC-MS/MS); assay type: physicochemical
Procedure: (1) Preparation of 100 mM phosphate buffer (PB) solution at pH 2.5 and pH 7.4 respectively: • a. Preparation of a solution of 100 mM H3PO4 in water: 14.7 M H3PO4 was diluted with water to a concentration of 100 mM H3PO4, and the pH was measured to be approximately 1.8. • b. Preparation of 100 mM NaH2PO4: 5.999 g of NaH2PO4 was dissolved in 500 mL of water and the pH was measured to be approximately 4.5. • c. Preparation of 100 mM Na2HPO4: 7.098 g of Na2HPO4 was dissolved in water to a volume of 500 mL and the pH was measured to be approximately 9.4. • d. Preparation of 100 mM PB (pH 2.5): 15 mL of 100 mM H3PO4 was added to a 50 mL tube, and then pH was adjusted to 2.5±0.05 with 100 mM NaH2PO4. • d. Preparation of 100 mM PB (pH 7.4): 15 mL of 100 mM Na2HPO4 was added to a 50 mL tube, and then pH was adjusted to 7.4±0.05 with 100 mM NaH2PO4.
(2) Saturation of PBs (pH 2.5 and pH 7.4) with 1-octanol: 10 mL of 1-octanol was added to 100 mL of 100 mM PBs (pH 2.5 and pH 7.4), and the mixture was shaken vigorously, and then allowed to stand overnight at room temperature for later use.
(3) Saturation of 1-octanol with PBs (pH 2.5 and pH 7.4): 10 mL of 100 mM PBs (pH 2.5 and pH 7.4) was added to 100 mL of 1-octanol, and the mixture was shaken vigorously, and then allowed to stand overnight at room temperature for later use.
2.1) 2 μL of 10 mM DMSO stock solution of the test compound were dispensed into test tubes, in duplicate.
2.2) 149 μL of PB saturated with 1-octanol (pH 2.5 and 7.4) were added to the tubes.
2.3) 149 μL of PB (pH 2.5 and 7.4) saturated with 1-octanol were added to the corresponding tubes.
2.4) Each tube was vigorously mixed for 2 minutes, then shaken at 800 rpm for 1 hour at room temperature.
2.5) The tubes were centrifuged at 4000 rpm for 5 minutes at room temperature.
2.6) Appropriate volumes of the buffer phase and 1-octanol phase samples were aliquoted.
2.7) These samples were diluted and analyzed using LC-MS/MS without running a calibration curve.
2.8) Data analysis: The log D value of each compound was calculated using the following formula: f

[4] = system: SW1990 (Pancreatic) cells; assay: Inhibition of SW1990 cells by compounds; assay type: cell-based; conditions: PY-X (DXD) set to 1
Procedure: as §1

[5] = system: Colo-205 (Colon) cells; assay: Inhibition of Colo-205 cells by compounds; assay type: cell-based; conditions: PY-X (DXD) set to 1
Procedure: as §1

[6] = system: SW1573 (NSCLC) cells; assay: Inhibition of SW1573 cells by compounds; assay type: cell-based; conditions: PY-X (DXD) set to 1
Procedure: as §1

[7] = system: A549 (NSCLC) cells; assay: Inhibition of A549 cells by compounds; assay type: cell-based; conditions: PY-X (DXD) set to 1
Procedure: as §1

[8] = system: PANC-1 (Pancreatic) cells; assay: Inhibition of PANC-1 cells by compounds; assay type: cell-based; conditions: PY-X (DXD) set to 1
Procedure: as §1

[9] = system: H1437 (NSCLC) cells; assay: Inhibition of H1437 cells by compounds; assay type: cell-based; conditions: PY-X (DXD) set to 1
Procedure: as §1

[10] = system: H1650 (NSCLC) cells; assay: Inhibition of H1650 cells by compounds; assay type: cell-based; conditions: PY-X (DXD) set to 1
Procedure: as §1

[11] = system: H82 (SCLC) cells; assay: Inhibition of H82 cells by compounds; assay type: cell-based; conditions: PY-X (DXD) set to 1
Procedure: as §1

[12] = system: HT-29 (Colon) cells; assay: Inhibition of HT-29 cells by compounds; assay type: cell-based; conditions: PY-X (DXD) set to 1
Procedure: as §1

[13] = samples retested together, ratio of measured IC50 to DXD

CC[C@@]1(O)C(=O)OCc2c1cc1n(c2=O)Cc2c-1nc1cc(F)c(OC)c3c1c2CCC3 [PY-11, (S)-9-ethyl-5-fluoro-9-hydroxy-4-methoxy-1,2,3,9,12,15-hexahydro-10H,13H-benzo[de]pyrano[3′,4:6,7]indolizino[1,2-b]quinolin-10,13-dione]
IC50 on N87 cells, ratio to DXD [1]: 0.0606
IC50 on 468 cells, ratio to DXD [2]: 0.9642

CC[C@@]1(O)C(=O)OCc2c1cc1n(c2=O)Cc2c-1nc1cc(F)c(OCCN)c3c1c2CCC3 [PY-17, (S)-4-(2-aminoethoxy)-9-ethyl-5-fluoro-9-hydroxy-1,2,3,9,12,15-hexahydro-10H,13H-benzo[d]pyrano[3′,4′:6,7]indolizino[1,2-b]quinolin-10,13-dione]
IC50 on N87 cells, ratio to DXD [1]: 3.7859
IC50 on 468 cells, ratio to DXD [2]: 8.0396

CC[C@@]1(O)C(=O)OCc2c1cc1n(c2=O)Cc2c-1nc1cc(F)c(C)c3c1c2[C@@H](CC(=O)NCCO)CC3 [PY-25B, 2-((1R,9S)-9-9-ethyl-5-fluoro-9-hydroxy-4-methyl-10,13-dioxo-2,3,9,10,13,15-hexahydro-1H,12H-benzo[de]pyrano[3′,4′:6,7]indolizino[1,2-b]quinolin-1-yl)-N-(2-hydroxyethyl)acetamide]
IC50 on N87 cells, ratio to DXD [1]: 2.9428
IC50 on 468 cells, ratio to DXD [2]: 1.3101

CC[C@@]1(O)C(=O)OCc2c1cc1n(c2=O)Cc2c-1nc1cc(F)c(C)c3c1c2[C@@H](NC(=O)OCCCO)CC3 [PY-4Car3C, 3-hydroxypropyl((1S,9S)-9-ethyl-5-fluoro-9-hydroxy-4-methyl-10,13-dioxo-2,3,9,10,13,15-hexahydro-1H,12H-benzo[d]pyrano[3′,4′:6,7]indolizino[1,2-b]quinolin-1-yl)carbamate]
IC50 on N87 cells, ratio to DXD (retest) [1, 13]: 0.3593
logD ([3]; pH 2.5): 2.2
logD ([3]; pH 7.4): 2.29
IC50 on 468 cells, ratio to DXD (retest) [2, 13]: 0.5740

CC[C@@]1(O)C(=O)OCc2c1cc1n(c2=O)Cc2c-1nc1cc(Cl)c(CO)c3c1c2CCC3 [PY-37, (S)-5-chloro-9-ethyl-9-hydroxy-4-(hydroxymethyl)-1,2,3,9,12,15-hexahydro-10 h,13 h-benzo[de]pyrano[3′,4′:6,7]indolizino[1,2-b]quinolin-10,13-dione]
IC50 in SW1990 cells, ratio to DXD [4]: 0.7777
IC50 in Colo-205 cells, ratio to DXD [5]: 0.6449
IC50 in SW1573 cells, ratio to DXD [6]: 0.6712
IC50 in A549 cells, ratio to DXD [7]: 0.4179
IC50 in PANC-1 cells, ratio to DXD [8]: 0.3514
IC50 in H1437 cells, ratio to DXD [9]: 0.9440
IC50 in H1650 cells, ratio to DXD [10]: 0.7310
IC50 in H82 cells, ratio to DXD [11]: 1.1563
IC50 in HT-29 cells, ratio to DXD [12]: 0.4700

CC[C@@]1(O)C(=O)OCc2c1cc1n(c2=O)Cc2c-1nc1ccc(CO)c3c1c2CCC3 [PY-37A, (S)-9-ethyl-9-hydroxy-4-(hydroxymethyl)-1,2,3,9,12,15-hexahydro-10 h,13 h-benzo[de]pyrano[3′,4′:6,7]indolizino[1,2-b]quinolin-10,13-dione]
IC50 in SW1990 cells, ratio to DXD [4]: 0.2986
IC50 in Colo-205 cells, ratio to DXD [5]: 0.2763
IC50 in SW1573 cells, ratio to DXD [6]: 0.2884
IC50 in A549 cells, ratio to DXD [7]: 0.2044
IC50 in PANC-1 cells, ratio to DXD [8]: 0.1992
IC50 in H1437 cells, ratio to DXD [9]: 0.2619
IC50 in H1650 cells, ratio to DXD [10]: 0.2611
IC50 in H82 cells, ratio to DXD [11]: 0.4153
IC50 in HT-29 cells, ratio to DXD [12]: 0.2181

CC[C@@]1(O)C(=O)OCc2c1cc1n(c2=O)Cc2c-1nc1cc(F)c(OC)c3c1c2[C@@H](N)CC3 [PY-12A, (1S,9S)-1-amino-9-ethyl-5-fluoro-9-hydroxy-4-methoxy-1,2,3,9,12,15-hexahydro-10H,13H-benzo[de]pyrano[3′,4:6,7]indolizino[1,2-b]quinolin-10,13-dione]
IC50 on N87 cells, ratio to DXD [1]: 1.6441
IC50 on 468 cells, ratio to DXD [2]: 3.3035
